The results in this text go back to ChEMBL document CHEMBL1201862, “PubChem BioAssay data set” (2004).

Calls of active or inactive are those of the source. Some results are limits rather than exact numbers.

One experiment concerns the target Cytochrome P450 2D6 (Homo sapiens, UniProt P10635). The experiment can be described thus: qHTS Assay for Inhibitors and Substrates of Cytochrome P450 2D6. [Related pubchem assays: 410 ]. It counts as ADME. The note with it: read-out: Potency. A general note: In qHTS, concentration-response curves come from the screen itself.
The target in a further experiment is Cytochrome P450 2C9 (Homo sapiens, UniProt P11712). The note with it: Potency.
For experiment [1], the target named is Eukaryotic translation initiation factor 4H (Homo sapiens, UniProt Q15056). Kind of experiment: human eIF4H binding inhibitors, primary screen, translation initiation inhibitor project, biochemical, uHTS, fluorescence polarization (AID 2012). On the technique in general: Polarisation of emitted light reports the rotation of a fluorescent probe.
The target in experiment [2] is Polyadenylate-binding protein 1 (Homo sapiens, UniProt P11940). The experiment can be described thus: PABP poly(A) RNA binding inhibitors, primary screen, biochemical, fluorescence polarization, uHTS (AID 2014).
Experiment [3] concerns the target T1, Eukaryotic translation initiation factor 2-alpha kinase 3 (Homo sapiens, UniProt Q9NZJ5). Kind of experiment: Dose response cell-based high-throughput screening assay to measure PERK inhibition. [Related pubchem assays: 1416 ]. It is filed as functional.
The target of experiment [4] is T1, Eukaryotic translation initiation factor 2-alpha kinase 3. Kind of experiment: Counterscreen assay for PERK inhibitors: Dose response cell-based high throughput screening assay to measure inhibition of PERK at 6 hours. [Related pubchem assays: 1522, 1416 ]. It is filed as functional. (The purpose of a counterscreen is to sort out artefacts and off-target activity.)

T1 sequence (Q9NZJ5 whole entry): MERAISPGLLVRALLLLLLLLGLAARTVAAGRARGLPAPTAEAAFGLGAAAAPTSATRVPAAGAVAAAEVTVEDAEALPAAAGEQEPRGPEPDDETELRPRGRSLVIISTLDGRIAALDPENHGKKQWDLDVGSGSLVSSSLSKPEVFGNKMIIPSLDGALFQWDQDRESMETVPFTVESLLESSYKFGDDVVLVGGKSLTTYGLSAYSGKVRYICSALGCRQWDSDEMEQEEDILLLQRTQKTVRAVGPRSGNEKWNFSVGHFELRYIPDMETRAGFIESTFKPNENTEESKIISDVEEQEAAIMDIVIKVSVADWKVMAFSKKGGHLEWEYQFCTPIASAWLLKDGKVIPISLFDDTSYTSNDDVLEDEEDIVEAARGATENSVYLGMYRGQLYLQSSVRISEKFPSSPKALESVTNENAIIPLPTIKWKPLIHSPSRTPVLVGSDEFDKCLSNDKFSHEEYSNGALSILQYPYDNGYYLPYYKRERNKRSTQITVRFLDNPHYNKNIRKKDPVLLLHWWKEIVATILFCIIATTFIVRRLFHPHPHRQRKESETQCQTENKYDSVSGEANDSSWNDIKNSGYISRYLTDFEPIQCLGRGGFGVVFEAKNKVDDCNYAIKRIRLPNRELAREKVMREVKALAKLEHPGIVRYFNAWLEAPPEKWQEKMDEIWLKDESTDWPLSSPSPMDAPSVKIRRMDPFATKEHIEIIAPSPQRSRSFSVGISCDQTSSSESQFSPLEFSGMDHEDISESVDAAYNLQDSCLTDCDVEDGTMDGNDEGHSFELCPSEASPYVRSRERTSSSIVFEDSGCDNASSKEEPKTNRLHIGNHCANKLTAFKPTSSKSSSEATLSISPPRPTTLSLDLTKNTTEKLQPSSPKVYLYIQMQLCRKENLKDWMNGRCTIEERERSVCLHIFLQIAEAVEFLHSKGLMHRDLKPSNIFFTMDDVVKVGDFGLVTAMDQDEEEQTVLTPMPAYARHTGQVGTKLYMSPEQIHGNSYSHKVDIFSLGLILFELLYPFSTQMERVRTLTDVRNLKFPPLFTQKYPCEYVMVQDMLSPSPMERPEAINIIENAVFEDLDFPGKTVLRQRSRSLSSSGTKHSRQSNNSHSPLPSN
Cytochrome P450 2C9, sequence (P11712 whole entry): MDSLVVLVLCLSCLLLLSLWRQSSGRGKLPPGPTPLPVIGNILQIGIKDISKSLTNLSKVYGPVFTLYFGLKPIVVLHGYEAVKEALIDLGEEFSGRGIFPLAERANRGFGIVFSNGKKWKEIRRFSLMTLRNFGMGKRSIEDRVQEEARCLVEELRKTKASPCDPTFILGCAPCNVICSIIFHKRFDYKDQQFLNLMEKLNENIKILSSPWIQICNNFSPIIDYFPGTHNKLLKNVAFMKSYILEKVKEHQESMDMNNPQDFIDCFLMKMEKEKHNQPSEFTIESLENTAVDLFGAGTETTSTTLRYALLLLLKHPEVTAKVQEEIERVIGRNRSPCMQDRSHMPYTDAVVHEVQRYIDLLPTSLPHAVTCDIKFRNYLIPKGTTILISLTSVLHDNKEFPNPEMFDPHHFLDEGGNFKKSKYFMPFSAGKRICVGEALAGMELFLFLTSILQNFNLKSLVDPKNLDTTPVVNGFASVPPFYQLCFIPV
Cytochrome P450 2D6, sequence (P10635 whole entry): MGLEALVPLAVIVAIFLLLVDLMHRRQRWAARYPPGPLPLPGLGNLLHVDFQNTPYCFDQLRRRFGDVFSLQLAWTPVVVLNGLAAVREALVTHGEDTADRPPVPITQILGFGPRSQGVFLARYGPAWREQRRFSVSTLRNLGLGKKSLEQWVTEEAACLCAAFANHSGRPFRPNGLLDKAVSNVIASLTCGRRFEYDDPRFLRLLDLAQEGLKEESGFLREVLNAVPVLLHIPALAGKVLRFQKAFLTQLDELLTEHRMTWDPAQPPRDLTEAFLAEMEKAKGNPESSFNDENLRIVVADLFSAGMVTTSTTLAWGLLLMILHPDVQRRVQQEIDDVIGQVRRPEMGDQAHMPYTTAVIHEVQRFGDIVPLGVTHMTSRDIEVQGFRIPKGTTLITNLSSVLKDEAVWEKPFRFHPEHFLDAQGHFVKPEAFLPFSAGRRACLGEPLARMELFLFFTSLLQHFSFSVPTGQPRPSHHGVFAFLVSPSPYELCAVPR
Polyadenylate-binding protein 1, sequence (P11940 whole entry): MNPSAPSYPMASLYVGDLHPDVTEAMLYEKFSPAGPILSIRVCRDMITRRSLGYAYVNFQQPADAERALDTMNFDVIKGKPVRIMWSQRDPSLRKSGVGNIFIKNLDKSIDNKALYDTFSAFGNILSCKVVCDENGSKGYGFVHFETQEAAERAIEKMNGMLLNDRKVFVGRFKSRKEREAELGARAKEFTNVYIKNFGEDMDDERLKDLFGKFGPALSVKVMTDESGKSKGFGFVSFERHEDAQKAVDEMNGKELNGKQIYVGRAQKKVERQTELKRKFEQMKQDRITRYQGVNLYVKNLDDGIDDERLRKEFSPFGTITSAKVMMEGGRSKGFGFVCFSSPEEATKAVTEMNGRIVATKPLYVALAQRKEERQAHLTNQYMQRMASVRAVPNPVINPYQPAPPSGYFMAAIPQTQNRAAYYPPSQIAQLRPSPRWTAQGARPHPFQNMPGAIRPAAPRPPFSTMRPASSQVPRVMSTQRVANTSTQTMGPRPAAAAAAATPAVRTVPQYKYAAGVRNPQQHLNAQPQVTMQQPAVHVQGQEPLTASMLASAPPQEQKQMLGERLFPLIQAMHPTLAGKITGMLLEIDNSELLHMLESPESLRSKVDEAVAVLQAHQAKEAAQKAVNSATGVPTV

On to `O=c1cc(-c2ccccc2O)oc2cc(O)cc(O)c12`, for which, on Cytochrome P450 2D6, the AC50 was 25.1 µM (inconclusive).

Consider `CCC[C@@H]1O[C@@H]2C[C@@H]3[C@@H]4CCC5=CC(=O)C=C[C@@]5(C)[C@H]4[C@H](O)C[C@@]3(C)[C@@]2(C(=O)CO)O1`, for which the AC50 on Cytochrome P450 2C9 is 25.1 µM (inconclusive).

On to `C[N+]1(C)[C@@H]2CC[C@H]1CC(OC(=O)[C@@H](CO)c1ccccc1)C2` (stereo partly specified), for which the values for the IC50 in experiment [1] and in experiment [2] were > 100 µM (inactive) and 4.91 µM (active), respectively.

Regarding `CCCn1cnc2c(S)nc(N)nc21`, the EC50 in experiment [3] and in experiment [4] was > 55.7 µM (not active) throughout.
